# Measurements reported in US5859012A, “Inhibitors of farnesyl-protein transferase” (Merck & Co., Inc., priority 1997, dated 1999).
# Where a name gives a salt, the structure may show the parent alone.
# Biological target: T1, human FPTase (Homo sapiens, UniProt P49354+P49356)
# T1 construct: made in house
# Assay: In vitro inhibition of ras farnesyl transferase (human FPTase assay, [3H]-FPP incorporation into Ras-CVIM)
# Format: biochemical
# Conditions: 100 nM Ras-CVIM, 30 min, read-out: IC50, inhibitory activity against human FPTase
row,IC50 [µM],Structure (SMILES)
1,≤ 10,"CCCC[C@H]1CN(c2cccc(C)c2C)C(=O)C(=O)N1Cc1cncn1Cc1ccc(C#N)cc1 [Example 2, (S)-5-n-butyl-4-[1-(4-cyanobenzyl)-5-imidazolylmethyl]-1-(2,3-dimethylphenyl)-2,3-piperazinedione hydrochloride]"
2,≤ 10,"N#Cc1ccc(Cn2cncc2CN2CCN(c3cccc(Cl)c3)C(=O)C2=O)cc1 [Example 1, 4-[1-(4-Cyanobenzyl)-5-imidazolylmethyl]-1-(3-chlorophenyl)-piperazine-2,3-dione hydrochloride]"
